According to PubChem BioAssay AID1259407 (Chemical Carcinogenesis Research Information System (CCRIS), 2018):
Calls of active or inactive are those of the source. The rule behind the calls is not given here.

System: CCRIS mutagenicity, Ames/micronucleus/aberration tests
Assay: CCRIS mutagenicity studies
[1] = Test System: AMES SALMONELLA TYPHIMURIUM, Strain/Indicator: TA98, Metabolic Activation: NONE, Method: PREINCUBATION
[2] = Test System: AMES SALMONELLA TYPHIMURIUM, Strain/Indicator: TA100, Metabolic Activation: NONE, Method: PREINCUBATION
[3] = Test System: AMES SALMONELLA TYPHIMURIUM, Strain/Indicator: TA98, Metabolic Activation: NONE, Method: STANDARD PLATE
[4] = Test System: AMES SALMONELLA TYPHIMURIUM, Strain/Indicator: TA100, Metabolic Activation: NONE, Method: STANDARD PLATE
[5] = Test System: AMES SALMONELLA TYPHIMURIUM, Strain/Indicator: TA1535, Metabolic Activation: NONE, Method: STANDARD PLATE

Nc1c2c(nc3ccccc13)CCCC2
mutagenic call (Test System: AMES SALMONELLA TYPHIMURIUM, Strain/Indicator: TA97, Metabolic Activation: HAMSTER LIVER S-9, AROCLOR 1254 (30%), Method: PREINCUBATION): active; positive | mutagenic call (Test System: AMES SALMONELLA TYPHIMURIUM, Strain/Indicator: TA97, Metabolic Activation: NONE, Method: PREINCUBATION): active; positive | mutagenic call (Test System: AMES SALMONELLA TYPHIMURIUM, Strain/Indicator: TA97, Metabolic Activation: RAT LIVER S-9, AROCLOR 1254 (30%), Method: PREINCUBATION): active; positive | mutagenic call (Test System: AMES SALMONELLA TYPHIMURIUM, Strain/Indicator: TA98, Metabolic Activation: HAMSTER LIVER S-9, AROCLOR 1254 (5 OR 10%), Method: PREINCUBATION): inactive; negative | mutagenic call (Test System: AMES SALMONELLA TYPHIMURIUM, Strain/Indicator: TA98, Metabolic Activation: HAMSTER LIVER S-9, AROCLOR 1254 (30%), Method: PREINCUBATION): active; positive | mutagenic call [1]: inactive; negative | mutagenic call (Test System: AMES SALMONELLA TYPHIMURIUM, Strain/Indicator: TA98, Metabolic Activation: RAT LIVER S-9, AROCLOR 1254 (5%), Method: PREINCUBATION): active; positive | mutagenic call (Test System: AMES SALMONELLA TYPHIMURIUM, Strain/Indicator: TA98, Metabolic Activation: RAT LIVER S-9, AROCLOR 1254 (10%), Method: PREINCUBATION): active; positive | mutagenic call (Test System: AMES SALMONELLA TYPHIMURIUM, Strain/Indicator: TA98, Metabolic Activation: RAT LIVER S-9, AROCLOR 1254 (30%), Method: PREINCUBATION): inactive; negative | mutagenic call [2]: inactive; negative | mutagenic call (Test System: AMES SALMONELLA TYPHIMURIUM, Strain/Indicator: TA100, Metabolic Activation: RAT LIVER S-9, AROCLOR 1254 (30%), Method: PREINCUBATION): inactive; negative | mutagenic call (Test System: UDS MOUSE HEPATOCYTES, Strain/Indicator: THY INCORP, Metabolic Activation: NONE, Method: AUTORADIOGRAPHY): active; positive | mutagenic call (Test System: UDS RAT HEPATOCYTES, Strain/Indicator: THY INCORP, Metabolic Activation: NONE, Method: AUTORADIOGRAPHY): active; positive

CC(=O)OCc1c2ccccc2cc2ccc3ccccc3c12
mutagenic call [3]: active; positive | mutagenic call [4]: active; positive

O[C@@H]1[C@@H]2O[C@@H]2c2c(cc3ccc4cccc5c6ccccc6c2c3c45)[C@H]1O
mutagenic call (Test System: AMES SALMONELLA TYPHIMURIUM, Strain/Indicator: TA97, Metabolic Activation: NONE, Method: PREINCUBATION (EXPOSURE IN MEDIUM WITH KCL)): active; positive | mutagenic call (Test System: AMES SALMONELLA TYPHIMURIUM, Strain/Indicator: TA97, Metabolic Activation: NONE, Method: PREINCUBATION (EXPOSURE IN MEDIUM WITHOUT KCL)): active; positive | mutagenic call (Test System: AMES SALMONELLA TYPHIMURIUM, Strain/Indicator: TA98, Metabolic Activation: NONE, Method: PREINCUBATION (EXPOSURE IN MEDIUM WITH KCL)): active; positive | mutagenic call (Test System: AMES SALMONELLA TYPHIMURIUM, Strain/Indicator: TA98, Metabolic Activation: NONE, Method: PREINCUBATION (EXPOSURE IN MEDIUM WITHOUT KCL)): active; positive | mutagenic call (Test System: AMES SALMONELLA TYPHIMURIUM, Strain/Indicator: TA100, Metabolic Activation: NONE, Method: PREINCUBATION (EXPOSURE IN MEDIUM WITH KCL)): active; positive | mutagenic call (Test System: AMES SALMONELLA TYPHIMURIUM, Strain/Indicator: TA100, Metabolic Activation: NONE, Method: PREINCUBATION (EXPOSURE IN MEDIUM WITHOUT KCL)): active; positive | mutagenic call (Test System: AMES SALMONELLA TYPHIMURIUM, Strain/Indicator: TA104, Metabolic Activation: NONE, Method: PREINCUBATION (EXPOSURE IN MEDIUM WITH KCL)): active; positive | mutagenic call (Test System: AMES SALMONELLA TYPHIMURIUM, Strain/Indicator: TA104, Metabolic Activation: NONE, Method: PREINCUBATION (EXPOSURE IN MEDIUM WITHOUT KCL)): active; positive | mutagenic call (Test System: CHINESE HAMSTER V-79, Strain/Indicator: V-79/6-THIOGUANINE, Metabolic Activation: NONE): active; positive

Cc1ccccc1NS(=O)(=O)c1cccc2cccnc12
mutagenic call [3]: inactive; negative | mutagenic call (Test System: AMES SALMONELLA TYPHIMURIUM, Strain/Indicator: TA98, Metabolic Activation: RAT, LIVER, S-9, AROCLOR 1254, Method: STANDARD PLATE): inactive; negative | mutagenic call [4]: inactive; negative | mutagenic call (Test System: AMES SALMONELLA TYPHIMURIUM, Strain/Indicator: TA100, Metabolic Activation: RAT, LIVER, S-9, AROCLOR 1254, Method: STANDARD PLATE): inactive; negative | mutagenic call [5]: inactive; negative | mutagenic call (Test System: AMES SALMONELLA TYPHIMURIUM, Strain/Indicator: TA1535, Metabolic Activation: RAT, LIVER, S-9, AROCLOR 1254, Method: STANDARD PLATE): inactive; negative | mutagenic call (Test System: AMES SALMONELLA TYPHIMURIUM, Strain/Indicator: TA1537, Metabolic Activation: NONE, Method: STANDARD PLATE): inactive; negative | mutagenic call (Test System: AMES SALMONELLA TYPHIMURIUM, Strain/Indicator: TA1537, Metabolic Activation: RAT, LIVER, S-9, AROCLOR 1254, Method: STANDARD PLATE): inactive; negative

Nc1n[nH]c(N)n1
mutagenic call (Test System: AMES SALMONELLA TYPHIMURIUM, Strain/Indicator: TA97, Metabolic Activation: NONE, Method: STANDARD PLATE): inactive; negative | mutagenic call (Test System: AMES SALMONELLA TYPHIMURIUM, Strain/Indicator: TA97, Metabolic Activation: RAT, LIVER, S-9, AROCLOR, Method: STANDARD PLATE): inactive; negative | mutagenic call (Test System: AMES SALMONELLA TYPHIMURIUM, Strain/Indicator: TA98, Metabolic Activation: HAMSTER, LIVER, S-9, AROCLOR 1254 (10%), Method: PREINCUBATION): inactive; negative | mutagenic call [1]: inactive; negative | mutagenic call [3]: inactive; negative | mutagenic call (Test System: AMES SALMONELLA TYPHIMURIUM, Strain/Indicator: TA98, Metabolic Activation: RAT, LIVER, S-9, AROCLOR 1254 (10%), Method: PREINCUBATION): inactive; negative | mutagenic call (Test System: AMES SALMONELLA TYPHIMURIUM, Strain/Indicator: TA98, Metabolic Activation: RAT, LIVER, S-9, AROCLOR, Method: STANDARD PLATE): inactive; negative | mutagenic call (Test System: AMES SALMONELLA TYPHIMURIUM, Strain/Indicator: TA100, Metabolic Activation: HAMSTER, LIVER, S-9, AROCLOR 1254 (10%), Method: PREINCUBATION): inactive; negative | mutagenic call [2]: inactive; negative | mutagenic call [4]: inactive; negative | mutagenic call (Test System: AMES SALMONELLA TYPHIMURIUM, Strain/Indicator: TA100, Metabolic Activation: RAT, LIVER, S-9, AROCLOR 1254 (10%), Method: PREINCUBATION): inactive; negative | mutagenic call (Test System: AMES SALMONELLA TYPHIMURIUM, Strain/Indicator: TA100, Metabolic Activation: RAT, LIVER, S-9, AROCLOR, Method: STANDARD PLATE): inactive; negative | mutagenic call (Test System: AMES SALMONELLA TYPHIMURIUM, Strain/Indicator: TA102, Metabolic Activation: NONE, Method: STANDARD PLATE): active; positive | mutagenic call (Test System: AMES SALMONELLA TYPHIMURIUM, Strain/Indicator: TA102, Metabolic Activation: RAT, LIVER, S-9, AROCLOR 1254, Method: STANDARD PLATE): active; positive | mutagenic call (Test System: AMES SALMONELLA TYPHIMURIUM, Strain/Indicator: TA1535, Metabolic Activation: HAMSTER, LIVER, S-9, AROCLOR 1254 (10%), Method: PREINCUBATION): inactive; negative | mutagenic call (Test System: AMES SALMONELLA TYPHIMURIUM, Strain/Indicator: TA1535, Metabolic Activation: NONE, Method: PREINCUBATION): inactive; negative | mutagenic call [5]: inactive; negative | mutagenic call (Test System: AMES SALMONELLA TYPHIMURIUM, Strain/Indicator: TA1535, Metabolic Activation: RAT, LIVER, S-9, AROCLOR 1254 (10%), Method: PREINCUBATION): inactive; negative | mutagenic call (Test System: AMES SALMONELLA TYPHIMURIUM, Strain/Indicator: TA1535, Metabolic Activation: RAT, LIVER, S-9, AROCLOR, Method: STANDARD PLATE): inactive; negative | mutagenic call (Test System: AMES SALMONELLA TYPHIMURIUM, Strain/Indicator: TA1537, Metabolic Activation: HAMSTER, LIVER, S-9, AROCLOR 1254 (10%), Method: PREINCUBATION): inactive; negative | mutagenic call (Test System: AMES SALMONELLA TYPHIMURIUM, Strain/Indicator: TA1537, Metabolic Activation: NONE, Method: PREINCUBATION): inactive; negative | mutagenic call (Test System: AMES SALMONELLA TYPHIMURIUM, Strain/Indicator: TA1537, Metabolic Activation: RAT, LIVER, S-9, AROCLOR 1254 (10%), Method: PREINCUBATION): inactive; negative | mutagenic call (Test System: UDS RODENT HEPATOCYTES, Strain/Indicator: THY INCORP (NON-S-PHASE), Metabolic Activation: NONE, Method: AUTORADIOGRAPHY): inactive; negative
